Results as given in patent publication US7351858B2, “Ortho-substituted benzoic acid derivatives for the treatment of insulin resistance” (AstraZeneca AB, priority 2002, dated 2008).

Target: T1, human PPAR alpha (Homo sapiens, UniProt Q07869)
T1 construct: expressed in transfected cells; host or cells: U2-OS (human osteogenic sarcoma), transient electroporation of a pSG5-based expression vector
T1 sequence (Q07869 239-466 limits assumed): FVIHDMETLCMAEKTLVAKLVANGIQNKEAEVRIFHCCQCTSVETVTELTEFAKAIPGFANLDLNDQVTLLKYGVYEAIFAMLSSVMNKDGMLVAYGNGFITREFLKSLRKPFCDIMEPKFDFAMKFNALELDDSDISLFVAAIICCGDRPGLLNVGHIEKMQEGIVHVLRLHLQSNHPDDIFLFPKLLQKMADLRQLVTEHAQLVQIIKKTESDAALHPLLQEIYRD
Assay: GAL4-PPARα ligand binding domain luciferase reporter transactivation assay in transiently transfected U2-OS cells
Format: cell-based
Conditions: about 24 hours exposure, concentration giving 50% of maximal activation by reference compound ETYA
Protocol: U2-OS, (Osteogenic sarcoma, Human) was purchased from ATCC, USA. Cells were expanded and refrozen in batches from passage number six. Cells were cultured in Dulbecco's modified Eagle medium (DMEM) with 25 mM glucose, 2 mM glutamine or 4 mM L-alanyl-L-glutamine, 10% fetal calf serum, at 5% CO2. Phosphate buffered saline (PBS) without addition of calcium or magnesium was used. All cell culture reagents were from Gibco (USA) and 96-well cell culture plates were purchased from Wallach.
Standard recombinant DNA techniques were carried out as described by Ausubel (7). The Luciferase reporter vector, pGL5UAS (clone consists of five copies of the GAL4 DNA binding sequence, 5′-[…]-3′, cloned into the SacI/XhoI sites of pGL3-Promoter (Promega). The SacI/XhoI fragment carrying the UAS sites was constructed using annealed overlapping oligonucleotides.
Expression vectors used are based upon pSG5 (Stratagene). All vectors contain an EcoRI/NheI fragment encoding the DNA binding domain of GAL4 (encoding amino acid positions 1-145 of database accession number P04386) followed by an in-frame fusion to a fragment encoding the nuclear localisation sequence from T antigen of Polyoma Virus. […]
After adjustment of the amount of cell medium to 75 μl in each well, 50 μl test compound solution was added. […] After lysis, luciferase activity was measured in a 1420 Multiwell counter, Victor, from Wallach. […]

EC50	SMILES
499 nM	CCN(Cc1ccc(Cl)cc1)C(=O)COc1ccc(CCSc2ccccc2C(=O)O)cc1 [Example 3, 2-{[2-(4-{2-[(4-chlorobenzyl)(ethyl)amino]-2-oxoethoxy}phenyl)ethyl]thio}benzoic acid]
48 nM	CCN(Cc1ccc(C(F)(F)F)cc1)C(=O)COc1ccc(CCOc2ccccc2C(=O)O)cc1 [Example 5, 2-[2-(4-{2-[Ethyl(4-trifluoromethylbenzyl)amino]-2-oxoethoxy}phenyl)ethoxy]benzoic acid]
